Test results reported in patent publication US12661361B2, “Resmetirom for reducing liver volume” (Madrigal Pharmaceuticals, Inc., priority 2021, dated 2026).

Experiments:
Assay type in all cases: in vivo, human
[1] = tested on: well-compensated NASH cirrhotic patients; test: MAESTRO-NAFLD-1 open label resmetirom arm in well-compensated NASH cirrhotic patients
Description: (§1) MRI-PDFF and liver volume (LV) were assessed in, (n=117), and a NASH-cirrhotic active resmetirom treatment arm of MAESTRO-NAFLD-1 (n=73), in patients who had at least baseline and one additional serial PDFF. LV was assessed using a validated artificial intelligence model for segmenting the liver on standard MR images.
MAESTRO-NAFLD-1 is a 52-week >1200 patient Phase 3 randomized double blind placebo controlled NASH clinical trial to study safety and biomarker effects of resmetirom, a selective thyroid hormone receptor beta agonist, in NASH patients with F1-F4 fibrosis identified using non-invasive biomarkers and imaging (NCT04197479). A goal of this “real life” NASH study is to identify non-invasive markers that correlate with individual patient response to resmetirom treatment. The study includes an open label active resmetirom treatment arm in well-compensated NASH cirrhotic patients.
Eligibility required at least 3 metabolic risk factors (metabolic syndrome), and NASH cirrhosis diagnosed on liver biopsy or according to accepted criteria. The primary and key secondary end points of the cirrhotic arm include safety, relative percent reduction of MRI-PDFF (week 16), LDL cholesterol (LDL-C) (week 24), Apolipoprotein B and triglycerides, and markers of fibrosis. Patients received 80-100 mg daily dose of resmetirom for 52 weeks.
105 well-compensated NASH cirrhotic patients were enrolled in the open label arm, 2/3 confirmed by liver biopsy. Demographics include mean age 62.7 (9.0 (SD)), female 64%, BMI 35.4 (7.4), diabetes 70%, hypertension 77%, dyslipidemia >70%, mean ASCVD score 16.1%, hypothyroid 32.4%, 51% on statins. MRE kPa, 5.7 (2.1); fibroscan kPa, 24.6 (14.9), CAP, 318 (59) and mean MRI-PDFF, 8.1% (5). Stage of cirrhosis was inversely correlated with baseline PDFF. At week 52 resmetirom lowered fibroscan CAP (−42 units (p<0.0001) and kPa (−7.6 kPa, p=0.02).

[2] = tested on: noninvasively identified NASH patients; test: MAESTRO-NAFLD-1 52 week Phase 3, 100 mg open label (OL) non-cirrhotic NASH arm
Description: MAESTRO-NASH NCT03900429 and MAESTRO-NAFLD-1 NCT04197479 are 52 week Phase 3 registrational double blind placebo controlled clinical trials to study the effect of resmetirom in more than 2,000 NASH patients. A goal of MAESTRO-NAFLD-1, a 1,200 patient “real life” NASH study is to identify non-invasive markers that correlate with patient response to resmetirom treatment. The 169 patient, 100 mg open label (OL) arm completed the 52 week study in July 2021.
Eligibility required at least 3 metabolic risk factors (Metabolic syndrome), fibroscan kilopascals (kPa) consistent with ≥F1 fibrosis stage, and MRI-PDFF≥8%. The primary and key secondary endpoints of MAESTRO-NAFLD-1 including safety, relative percent reduction of MRI-PDFF (week 16), LDL cholesterol (LDL-C) (week 24), apolipoprotein B and triglycerides, fibroscan and 52 week endpoints were analyzed in the OL arm.

[3] = tested on: adults with biopsy-confirmed NASH (NAS≥4, F1-F3) and hepatic fat fraction ≥10%; test: 36-week Phase 2 serial MRI-PDFF and liver biopsy study; MRI-PDFF and liver volume (LV) assessment
Description: Hepatomegaly may cause symptoms (e.g., pain) in NASH patients, and is thought to be driven primarily by high liver fat content. […] The purpose of this study was to assess the relationship between liver triglycerides as measured by MRI-PDFF and liver volume (LV) in placebo and resmetirom-treated patients.
as §1
LV at baseline was elevated in non-cirrhotic and cirrhotic NASH patients relative to literature values for healthy controls and was greater than predicted even after accounting for sex and body weight. PDFF correlated with LV at baseline in non-cirrhotic (r2=0.19, p<0.001) and more weakly in cirrhotic NASH (r2=0.079, p=0.01). Reduction in LV (CFB) correlated with reduction in PDFF in placebo (r2=0.25, p=0.001) and resmetirom (r2-0.38, p<0.0001) treated patients at 12 (and 36 (not shown)) weeks (see, e.g., FIG. 1).

[4] = cirrhotic NASH patients with PDFF≤5% at baseline, week 16

CC(C)c1cc(Oc2c(Cl)cc(-n3nc(C#N)c(=O)[nH]c3=O)cc2Cl)n[nH]c1=O [resmetirom, 2-(3,5-dichloro-4-((5-isopropyl-6-oxo-1,6-dihydropyridazin-3-yl)oxy)phenyl)-3,5-dioxo-2,3,4,5-tetrahydro-1,2,4-triazine-6-carbonitrile]
safety and tolerability ([1]; 80-100 mg daily up to 52 weeks): safe and well-tolerated | fibroscan CAP change ([1]; 80-100 mg daily, week 52, p<0.0001): −42 units | fibroscan kPa change ([1]; 80-100 mg daily, week 52, p=0.02): −7.6 kPa | BP reduction ([1]; NASH cirrhotic arm): 4-5 mm | LV mean % CFB [1, 4]: −16.3% | PDFF mean % CFB [1, 4]: −2.5% | ApoB reduction ([1]; independent of cirrhosis stage): 20% | LDL-C reduction ([1]; independent of cirrhosis stage): 20% | Lp (a) reduction ([1]; independent of cirrhosis stage): 30% | triglycerides reduction ([1]; independent of cirrhosis stage): 21% | GGT change ([1]; p=0.04): −27% | PDFF lowered by ([1]; patients with baseline PDFF>5%, p<0.0057): 37% | MRE lowered by ([1]; week 52): 0.68 kPa | patients with MRE reduction of ≥15% ([1]; week 52): 34% | patients with ≥15% reduction in LV ([1]; week 52, independent of baseline cirrhosis severity): 73% | ELF (inflammatory and fibrosis biomarker) ([2]; 100 mg OL arm): Significant reductions | LV reduction relative to that predicted by % reduction in MRI-PDFF ([2]; 100 mg OL arm): 2-3 fold | M30 (inflammatory and fibrosis biomarker) ([2]; 100 mg OL arm): Significant reductions | adiponectin ([2]; 100 mg OL arm): increase | reverse T3 (inflammatory and fibrosis biomarker) ([2]; 100 mg OL arm): Significant reductions | LDL-C reduction ([2]; 100 mg OL arm, p<0.0001): −22% | apolipoprotein-B reduction ([2]; 100 mg OL arm, p<0.0001): −24% | triglycerides reduction ([2]; 100 mg OL arm, p<0.0001): −24% | blood pressure (systolic, diastolic) reduction ([2]; 100 mg OL arm, p=0.02): ~2 mmHg | patients with weight loss ≥5% ([2]; 100 mg OL arm, linked to resmetirom exposure (SHBG)): ~25% | safety ([2]; 100 mg per day up to 52 weeks): No safety flags were identified | liver volume (LV) reduction ([2]; 100 mg, week 52, p<0.0001): −23% | bone mineral density (DEXA) ([2]; 52 weeks): unchanged | fibroscan CAP change relative to baseline ([2]; week 52, p<0.0001): −39 (4.6) | fibroscan VCTE change relative to baseline ([2]; week 52, p<0.0001): −1.87 | fibroscan VCTE percent change relative to baseline ([2]; week 52, p<0.0001): −20% | MRE change relative to baseline ([2]; week 52, p=0.03): −0.34 | LV reduction ([3]; 12 weeks, p<0.0001 vs placebo): −18.6% | liver fat reduction (MRI-PDFF) ([3]; 36-week Phase 2, compared with placebo, associated with NASH resolution on liver biopsy): statistically significant liver fat reduction | LV reduction ([3]; 36 weeks, p<0.0001 vs placebo): −20.5% | percentage of patients with ≥15% reduction in liver volume ([3]; Week 12, p<0.0001 vs placebo): 69.2% | week 12 imaging response in patients who had NASH resolution and/or fibrosis reduction on biopsy at week 36 ([3]; all such resmetirom treated patients): PDFF reduction ≥30% and/or LV reduction of ≥15%
